Molecular target: T1, GlyT1 (Homo sapiens, UniProt P48067)
T1 construct: expressed in transfected cells
T1 sequence (P48067 1-706): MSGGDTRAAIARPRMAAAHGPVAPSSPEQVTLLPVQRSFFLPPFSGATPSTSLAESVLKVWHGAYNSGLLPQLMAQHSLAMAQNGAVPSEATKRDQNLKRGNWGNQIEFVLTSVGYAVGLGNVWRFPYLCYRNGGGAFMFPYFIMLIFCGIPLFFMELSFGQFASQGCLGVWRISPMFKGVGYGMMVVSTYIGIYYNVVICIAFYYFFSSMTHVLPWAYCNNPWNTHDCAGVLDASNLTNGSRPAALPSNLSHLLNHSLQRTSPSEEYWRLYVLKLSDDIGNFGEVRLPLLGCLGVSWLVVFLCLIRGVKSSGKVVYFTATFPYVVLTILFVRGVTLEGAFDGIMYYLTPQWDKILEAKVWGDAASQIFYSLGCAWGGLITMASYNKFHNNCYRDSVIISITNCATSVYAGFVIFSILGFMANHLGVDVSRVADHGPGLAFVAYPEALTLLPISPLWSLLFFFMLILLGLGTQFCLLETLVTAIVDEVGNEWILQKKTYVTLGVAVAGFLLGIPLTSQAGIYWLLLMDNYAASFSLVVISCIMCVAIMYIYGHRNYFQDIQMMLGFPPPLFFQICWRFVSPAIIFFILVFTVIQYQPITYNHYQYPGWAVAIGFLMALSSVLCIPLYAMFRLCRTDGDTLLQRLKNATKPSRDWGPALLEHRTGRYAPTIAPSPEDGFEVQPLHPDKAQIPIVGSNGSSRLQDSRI
Assay: Glycine Transporter 1 (GlyT1) uptake assay, scintillation proximity assay of [14C]-glycine uptake
Assay type: cell-based
Conditions: SPA, four parameter logistic fit, read-out: GlyT1 (pIC50) (converted)
Outline: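 [14C]-glycine uptake read by scintillation proximity on a plate counter. IC50 from four-parameter logistic fit of dose-response data.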

## COc1c(C#N)ccc(OC2CCCC2)c1C(=O)N1Cc2cn(-c3ccc(F)cc3)nc2C1 [Example 513, 4-(Cyclopentyloxy)-3-[2-(4-fluorophenyl)-2H 4H 5H 6H-pyrrolo[3,4-c]pyrazole-5-carbonyl]-2-methoxybenzonitrile]
  IC50: < 100 nM

## COc1c(C#N)ccc(N2CCC(F)(F)C2)c1C(=O)N1Cc2cn(-c3ccc(F)cc3)nc2C1 [Example 514, 4-(3 3-Difluoropyrrolidin-1-yl)-3-[2-(4-fluorophenyl)-2H 4H 5H 6H-pyrrolo[3,4-c]pyrazole-5-carbonyl]-2-methoxybenzonitrile]
  IC50: < 100 nM

## COc1c(C#N)ccc(OC(C)C)c1C(=O)N1Cc2cn(-c3ccc(F)cc3)nc2C1 [Example 515, 3-[2-(4-Fluorophenyl)-2H 4H 5H 6H-pyrrolo[3,4-c]pyrazole-5-carbonyl]-2-methoxy-4-(propan-2-yloxy)benzonitrile]
  IC50: < 100 nM

## COc1c(C#N)ccc(OC(C)(C)C(F)(F)F)c1C(=O)N1Cc2cn(-c3ccc(F)cc3)nc2C1 [Example 516, 3-[2-(4-Fluorophenyl)-2H 4H 5H 6H-pyrrolo[3,4-c]pyrazole-5-carbonyl]-2-methoxy-4-[(1 1 1-trifluoro-2-methylpropan-2-yl)oxy]benzonitrile]
  IC50: < 100 nM

## COc1c(C#N)ccc(OC(C)CF)c1C(=O)N1Cc2cn(-c3ccc(F)cc3)nc2C1 (stereo not drawn) [Example 517, 3-[2-(4-Fluorophenyl)-2H 4H 5H 6H-pyrrolo[3,4-c]pyrazole-5-carbonyl]-4-[(1-fluoropropan-2-yl)oxy]-2-methoxybenzonitrile]
  IC50: < 100 nM

## CCC(CC)Oc1ccc(C#N)c(OC)c1C(=O)N1Cc2cn(-c3ccc(F)cc3)nc2C1 [Example 518, 3-[2-(4-Fluorophenyl)-2H 4H 5H 6H-pyrrolo[3,4-c]pyrazole-5-carbonyl]-2-methoxy-4-(pentan-3-yloxy)benzonitrile]
  IC50: < 100 nM

## COc1c(C#N)ccc(OC2COC2)c1C(=O)N1Cc2cn(-c3ccc(F)cc3)nc2C1 [Example 519, 3-[2-(4-Fluorophenyl)-2H 4H 5H 6H-pyrrolo[3,4-c]pyrazole-5-carbonyl]-2-methoxy-4-(oxetan-3-yloxy)benzonitrile]
  IC50: < 100 nM

## COc1c(C#N)ccc(OCC(F)F)c1C(=O)N1Cc2cn(-c3ccc(F)cc3)nc2C1 [Example 520, 4-(2 2-Difluoroethoxy)-3-[2-(4-fluorophenyl)-2H 4H 5H 6H-pyrrolo[3,4-c]pyrazole-5-carbonyl]-2-methoxybenzonitrile]
  IC50: < 100 nM

## CCCC(C)Oc1ccc(C#N)c(OC)c1C(=O)N1Cc2cn(-c3ccc(F)cc3)nc2C1 (stereo not drawn) [Example 521, 3-[2-(4-Fluorophenyl)-2H 4H 5H 6H-pyrrolo[3,4-c]pyrazole-5-carbonyl]-2-methoxy-4-(pentan-2-yloxy)benzonitrile]
  IC50: 100 to 1000 nM

## COc1c(C#N)ccc(OCC(C)C)c1C(=O)N1Cc2cn(-c3ccc(F)cc3)nc2C1 [Example 522, 3-[2-(4-Fluorophenyl)-2H 4H 5H 6H-pyrrolo[3,4-c]pyrazole-5-carbonyl]-2-methoxy-4-(2-methylpropoxy)benzonitrile]
  IC50: < 100 nM

## COc1c(C#N)ccc(OC(C)C(C)C)c1C(=O)N1Cc2cn(-c3ccc(F)cc3)nc2C1 (stereo not drawn) [Example 523, 3-[2-(4-Fluorophenyl)-2H 4H 5H 6H-pyrrolo[3,4-c]pyrazole-5-carbonyl]-2-methoxy-4-[(3-methylbutan-2-yl)oxy]benzonitrile]
  IC50: < 100 nM

## COc1c(C#N)ccc(OC(C)C2CC2)c1C(=O)N1Cc2cn(-c3ccc(F)cc3)nc2C1 (stereo not drawn) [Example 524, 4-(1-Cyclopropylethoxy)-3-[2-(4-fluorophenyl)-2H 4H 5H 6H-pyrrolo[3,4-c]pyrazole-5-carbonyl]-2-methoxybenzonitrile]
  IC50: < 100 nM

## COc1c(C#N)ccc(OC2(C)CC2)c1C(=O)N1Cc2cn(-c3ccc(F)cc3)nc2C1 [Example 525, 3-[2-(4-Fluorophenyl)-2H 4H 5H 6H-pyrrolo[3,4-c]pyrazole-5-carbonyl]-2-methoxy-4-(1-methylcyclopropoxy)benzonitrile]
  IC50: < 100 nM

## CC(C)(C)COc1ccc(C#N)cc1C(=O)N1Cc2cn(-c3ccc(F)cc3)nc2C1 [Example 526, 4-(2 2-Dimethylpropoxy)-3-[2-(4-fluorophenyl)-2H 4H 5H 6H-pyrrolo[3,4-c]pyrazole-5-carbonyl]benzonitrile]
  IC50: < 100 nM

## N#Cc1ccc(OCC(F)F)c(C(=O)N2Cc3cn(-c4ccc(F)cc4)nc3C2)c1 [Example 527, 4-(2 2-Difluoroethoxy)-3-[2-(4-fluorophenyl)-2H 4H 5H 6H-pyrrolo[3,4-c]pyrazole-5-carbonyl]benzonitrile]
  IC50: 1000 to 10000 nM

## N#Cc1ccc(OCC(F)(F)F)c(C(=O)N2Cc3cn(-c4ccc(F)cc4)nc3C2)c1 [Example 528, 3-[2-(4-Fluorophenyl)-2H 4H 5H 6H-pyrrolo[3,4-c]pyrazole-5-carbonyl]-4-(2 2 2-trifluoroethoxy)benzonitrile]
  IC50: 100 to 1000 nM

## CC(C)Oc1ccc(C#N)cc1C(=O)N1Cc2cn(-c3ccc(F)cc3)nc2C1 [Example 529, 3-[2-(4-Fluorophenyl)-2H 4H 5H 6H-pyrrolo[3,4-c]pyrazole-5-carbonyl]-4-(propan-2-yloxy)benzonitrile]
  IC50: 100 to 1000 nM

## C[C@H](Oc1ccc(C#N)cc1C(=O)N1Cc2cn(-c3ccc(F)cc3)nc2C1)C(F)(F)F [Example 530, 3-[2-(4-Fluorophenyl)-2H 4H 5H 6H-pyrrolo[3,4-c]pyrazole-5-carbonyl]-4-{[(2S)-1 1 1-trifluoropropan-2-yl]oxy}benzonitrile]
  IC50: 100 to 1000 nM

## N#Cc1ccc(OCC2CC2)c(C(=O)N2Cc3cn(-c4ccc(F)cc4)nc3C2)c1 [Example 531, 4-(Cyclopropylmethoxy)-3-[2-(4-fluorophenyl)-2H 4H 5H 6H-pyrrolo[3,4-c]pyrazole-5-carbonyl]benzonitrile]
  IC50: 100 to 1000 nM

## CC(C)(Oc1ccc(C#N)cc1C(=O)N1Cc2cn(-c3ccc(F)cc3)nc2C1)C(F)(F)F [Example 532, 3-[2-(4-Fluorophenyl)-2H 4H 5H 6H-pyrrolo[3,4-c]pyrazole-5-carbonyl]-4-[(1 1 1-trifluoro-2-methylpropan-2-yl)oxy]benzonitrile]
  IC50: 100 to 1000 nM

## COc1c(C#N)ccc(OCC(F)(F)F)c1C(=O)N1Cc2cn(-c3ccc(F)c(C)n3)nc2C1 [Example 533, 3-[2-(5-Fluoro-6-methylpyridin-2-yl)-2H 4H 5H 6H-pyrrolo[3,4-c]pyrazole-5-carbonyl]-2-methoxy-4-(2 2 2-trifluoroethoxy)benzonitrile]
  IC50: < 100 nM

## COc1c(C#N)ccc(OCC(F)F)c1C(=O)N1Cc2cn(-c3ccc(F)c(C)n3)nc2C1 [Example 534, 4-(2 2-Difluoroethoxy)-3-[2-(5-fluoro-6-methylpyridin-2-yl)-2H 4H 5H 6H-pyrrolo[3,4-c]pyrazole-5-carbonyl]-2-methoxybenzonitrile]
  IC50: 100 to 1000 nM

## COc1c(C#N)ccc(OC(C)C)c1C(=O)N1Cc2cn(-c3ccc(F)c(C)n3)nc2C1 [Example 535, 3-[2-(5-Fluoro-6-methylpyridin-2-yl)-2H 4H 5H 6H-pyrrolo[3,4-c]pyrazole-5-carbonyl]-2-methoxy-4-(propan-2-yloxy)benzonitrile]
  IC50: < 100 nM

## COc1c(C#N)ccc(OCC2(C)COC2)c1C(=O)N1Cc2cn(-c3ccc(F)c(C)n3)nc2C1 [Example 536, 3-[2-(5-Fluoro-6-methylpyridin-2-yl)-2H 4H 5H 6H-pyrrolo[3,4-c]pyrazole-5-carbonyl]-2-methoxy-4-[(3-methyloxetan-3-yl)methoxy]benzonitrile]
  IC50: 100 to 1000 nM

Source: US9708334B2, “Substituted 2,4,5,6-tetrahydropyrrolo[3,4-c]pyrazole and 4,5,6,7-tetrahydro-2H-pyrazolo[4,3-c]pyridine compounds as GlyT1 inhibitors” (DART NEUROSCIENCE (CAYMAN) LTD., priority 2014, dated 2017)
